Data taken from PMC5895699, “Catalytically active inclusion bodies of L-lysine decarboxylase from E. coli for 1,5-diaminopentane production” (Scientific Reports, 2018).

Biological target: T1, EcLDCc-CatIBs (EcLDCc-TDoT fusion; constitutive L-lysine decarboxylase from E. coli) (Escherichia coli, UniProt P52095)
T1 construct: gene ldcC; full-length EcLDCc with C-terminal 3xGGGS linker and TDoT coiled-coil tag (tetrabrachion, Staphylothermus marinus), pET28, E. coli BL21(DE3)
T1 sequence (P52095 1-713): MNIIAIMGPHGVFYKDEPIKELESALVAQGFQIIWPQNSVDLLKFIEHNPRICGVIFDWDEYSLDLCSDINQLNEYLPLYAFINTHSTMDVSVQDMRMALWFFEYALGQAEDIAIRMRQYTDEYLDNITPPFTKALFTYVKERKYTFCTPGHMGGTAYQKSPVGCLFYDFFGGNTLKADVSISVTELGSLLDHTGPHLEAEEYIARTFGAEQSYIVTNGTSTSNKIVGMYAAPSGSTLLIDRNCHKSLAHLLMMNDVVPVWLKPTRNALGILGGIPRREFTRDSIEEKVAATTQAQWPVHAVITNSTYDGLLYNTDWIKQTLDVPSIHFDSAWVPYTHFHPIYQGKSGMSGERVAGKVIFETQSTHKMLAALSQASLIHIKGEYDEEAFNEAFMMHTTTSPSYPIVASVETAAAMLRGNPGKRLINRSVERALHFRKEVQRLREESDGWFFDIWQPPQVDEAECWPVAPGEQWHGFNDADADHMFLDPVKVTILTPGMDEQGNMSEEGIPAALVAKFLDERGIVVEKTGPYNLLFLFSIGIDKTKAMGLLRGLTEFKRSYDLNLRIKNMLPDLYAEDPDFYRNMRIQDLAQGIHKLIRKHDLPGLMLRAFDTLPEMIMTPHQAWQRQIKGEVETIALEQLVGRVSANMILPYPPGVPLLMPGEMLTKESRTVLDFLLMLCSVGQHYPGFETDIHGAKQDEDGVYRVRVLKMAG
Assay: HPLC of […],5-diaminopentane formed, OPA derivatisation
Type: biochemical
Conditions: 50 mM KPi buffer, 10 mM L-lysine, 30 °C, pH 7-9 (general range; pH 9 differs); CatIB enzyme as prepared, not PLP-depleted

- % activity increase at 0.1 mM PLP: 5–15%
SMILES: Cc1ncc(COP(=O)(O)O)c(C=O)c1O [pyridoxal-5′-phosphate]
